# Measured values reported in patent US20120270929A1, “MODULATION OF TTC39 EXPRESSION TO INCREASE HDL” (ISIS Pharmaceuticals, Inc., priority 2009, published 2012).
# Oligonucleotides are written 5' to 3', each unit as a sugar letter and its base; * is a phosphorothioate linkage, no mark a phosphodiester; rarer units and linkages stand in square brackets, end groups in braces. Plain capitals give the bases only. e = 2'-O-(2-methoxyethyl) (MOE); [5mC] = 5-methylcytosine; d = 2'-deoxy (DNA)
# Experiments:
# Assay type in all cases: cell-based
# [1] = tested on: murine TTC39C mRNA; assay: Antisense inhibition of mouse TTC39C in mouse primary hepatocytes, single dose; settings: 8,000 nM antisense oligonucleotide, electroporation, approximately 24 hours, TTC39C mRNA by real-time PCR (RTS3266), relative to untreated control cells
# Procedure: Antisense oligonucleotides were designed targeting a TTC39C nucleic acid and were tested for their effects on TTC39C mRNA in vitro. Cultured mouse primary hepatocytes at a density of 30,000 cells per well were transfected by electroporation with 8,000 nM antisense oligonucleotide. After a treatment period of approximately 24 hours, RNA was isolated from the cells and TTC39C mRNA levels were measured by quantitative real-time PCR. Mouse primer probe set RTS3266 (forward sequence […], designated herein as SEQ ID NO: 140; reverse sequence […], designated herein as SEQ ID NO: 141; probe sequence […], designated herein as SEQ ID NO: 142). TTC39C mRNA levels were adjusted according to total RNA content, as measured by RIBOGREEN®. Results are presented as percent inhibition of TTC39C, relative to untreated control cells.
# The chimeric antisense oligonucleotides targeting TTC39C were designed as 5-10-5 MOE gapmers. The gapmers are 20 nucleotides in length, wherein the central gap segment is comprised of ten 2′-deoxynucleotides and is flanked on both sides (in the 5′ and 3′ directions) by wings comprising five nucleotides each. Each nucleotide in the 5′ wing segment and each nucleotide in the 3′ wing segment has a 2′-MOE modification. The internucleoside linkages throughout each gapmer are phosphorothioate (P═S) linkages. All cytosine residues throughout each gapmer are 5-methylcytosines. “Mouse Target start site” indicates the 5′-most nucleotide to which the gapmer is targeted in the mouse gene sequence.
# [2] = tested on: murine TTC39C mRNA; assay: Dose-dependent antisense inhibition of murine TTC39C in mouse primary hepatocytes; settings: electroporation, ~16 h; for IC50: mouse primary hepatocytes
# Procedure: Thirty antisense oligonucleotides were selected from the study described in Example 8 and further tested at various doses in mouse primary hepatocytes. Cells were plated at a density of 30,000 cells per well and transfected using electroporation with 500 nM, 1,000 nM, 2,000 nM, 4,000 nM, and 8,000 nM concentrations of antisense oligonucleotide, as specified in Table 30. After a treatment period of approximately 16 hours, RNA was isolated from the cells and TTC39C mRNA levels were measured by quantitative real-time PCR. Murine primer probe set RTS3266 was used to measure mRNA levels. TTC39C mRNA levels were adjusted according to total RNA content, as measured by RIBOGREEN®. Results are presented as percent inhibition of TTC39C, relative to untreated control cells.
# [3] = tested on: murine TTC39B mRNA; assay: Antisense inhibition of murine TTC39B in mouse primary hepatocytes, single dose; settings: 100 nM, cytofectin, ~24 h, vs untreated control
# Procedure: Antisense oligonucleotides targeted to a TTC39B nucleic acid were tested for their effects on TTC39B mRNA in vitro. Cultured mouse primary hepatocytes at a density of 10,000 cells per well were transfected using cytofectin reagent with 100 nM antisense oligonucleotide. After a treatment period of approximately 24 hours, RNA was isolated from the cells and TTC39B mRNA levels were measured by quantitative real-time PCR. TTC39B mRNA levels were adjusted according to total RNA content, as measured by RIBOGREEN®. Results are presented as percent inhibition of TTC39B, relative to untreated control cells.
# The chimeric antisense oligonucleotides in Tables 1 and 2 were designed as 5-10-5 MOE gapmers. The gapmers are 20 nucleotides in length, wherein the central gap segment is comprised of 10 2′-deoxynucleotides and is flanked on both sides (in the 5′ and 3′ directions) by wings comprising 5 nucleotides each. Each nucleotide in the 5′ wing segment and each nucleotide in the 3′ wing segment has a 2′-MOE modification. The internucleoside linkages throughout each gapmer are phosphorothioate (P═S) linkages. All cytosine residues throughout each gapmer are 5-methylcytosines. “Target start site” indicates the 5′-most nucleotide to which the gapmer is targeted. “Target stop site” indicates the 3′-most nucleotide to which the gapmer is targeted. Each gapmer listed in Table 1 is targeted to SEQ ID NO: 6 (GENBANK Accession No. NM_027238.2) and each gapmer listed in Table 2 is targeted to SEQ ID NO: 10 (the complement of GENBANK Accession No. NT—039260.7 truncated at nucleotides 22491001 to 22601000), SEQ ID NO: 11 (GENBANK Accession No. BY244623.1), SEQ ID NO: 12 (GENBANK Accession No. BY260936), SEQ ID NO: 13 (GENBANK Accession No. BM935568.1) or SEQ ID NO: 14 (GENBANK Accession No. BY728780.1).
# [4] = tested on: murine TTC39B mRNA; assay: Dose-dependent antisense inhibition of murine TTC39B in mouse primary hepatocytes (Example 2); settings: cytofectin, ~16 h
# Procedure: Cells were plated at a density of 10,000 cells per well and transfected using cytofectin reagent with 25 nM, 50 nM, 100 nM, and 200 nM concentrations of antisense oligonucleotide, as specified in Table 3. After a treatment period of approximately 16 hours, RNA was isolated from the cells and TTC39B mRNA levels were measured by quantitative real-time PCR. Murine primer probe set mTtc39b_LTS00287 (forward sequence: […], incorporated herein as SEQ ID NO: 94; reverse sequence: […], incorporated herein as SEQ ID NO: 95; probe sequence: […], incorporated herein as SEQ ID NO: 96) was used to measure mRNA levels. TTC39B mRNA levels were adjusted according to total RNA content, as measured by RIBOGREEN®. Results are presented as percent inhibition of TTC39B, relative to untreated control cells.
# [5] = gapmers targeted to SEQ ID NO: 6
Substance,% inhibition [1] [%],percent inhibition of TTC39C mRNA ([2]; 500.0 nM) [%],percent inhibition of TTC39C mRNA ([2]; 1000.0 nM) [%],percent inhibition of TTC39C mRNA ([2]; 2000.0 nM) [%],percent inhibition of TTC39C mRNA ([2]; 4000.0 nM) [%],percent inhibition of TTC39C mRNA ([2]; 8000.0 nM) [%],IC50 [2] [nM],"% inhibition of murine TTC39B mRNA [3, 5] [%]",percent inhibition of TTC39B mRNA ([4]; 25 nM) [%],percent inhibition of TTC39B mRNA ([4]; 50 nM) [%],percent inhibition of TTC39B mRNA ([4]; 100 nM) [%],percent inhibition of TTC39B mRNA ([4]; 200 nM) [%],% inhibition of murine TTC39B mRNA ([3]; gapmers targeted to SEQ ID NO: 10-14) [%]
ISIS 474604: 5-10-5 MOE gapmer antisense oligonucleotide targeting murine TTC39C (antisense eT*eG*eT*e[5mC]*eA*d[5mC]*dT*dG*d[5mC]*d[5mC]*dG*dT*d[5mC]*d[5mC]*dA*eA*eA*eG*e[5mC]*eA),97,43,70,84,88,96,500,–,–,–,–,–,–
ISIS 474617: 5-10-5 MOE gapmer antisense oligonucleotide targeting murine TTC39C (antisense eA*eG*eT*eT*e[5mC]*d[5mC]*d[5mC]*dT*dT*dA*dG*dG*dG*dA*dG*eG*e[5mC]*e[5mC]*eA*eG),94,43,45,80,86,94,800,–,–,–,–,–,–
ISIS 474538: 5-10-5 MOE gapmer antisense oligonucleotide targeting murine TTC39C (antisense eT*eA*eG*e[5mC]*eA*d[5mC]*dG*d[5mC]*dA*dT*dA*dT*dG*dG*d[5mC]*eG*eG*eG*eA*e[5mC]),96,51,58,82,88,92,400,–,–,–,–,–,–
AATGCCACCACCTTCAACCA (antisense eA*eA*eT*eG*e[5mC]*d[5mC]*dA*d[5mC]*d[5mC]*dA*d[5mC]*d[5mC]*dT*dT*d[5mC]*eA*eA*e[5mC]*e[5mC]*eA) [ISIS 447138],–,–,–,–,–,–,–,65,20,49,68,86,–
TCGAAATGTTTCTTGAGCCT (antisense eT*e[5mC]*eG*eA*eA*dA*dT*dG*dT*dT*dT*d[5mC]*dT*dT*dG*eA*eG*e[5mC]*e[5mC]*eT) [ISIS 447119],–,–,–,–,–,–,–,65,28,52,80,77,–
GCTCAGCTTGCAAGGGCCGC (antisense eG*e[5mC]*eT*e[5mC]*eA*dG*d[5mC]*dT*dT*dG*d[5mC]*dA*dA*dG*dG*eG*e[5mC]*e[5mC]*eG*e[5mC]) [ISIS 447127],–,–,–,–,–,–,–,65,40,62,84,90,–
ATGCCATTCTGGATGTCCTG (antisense eA*eT*eG*e[5mC]*e[5mC]*dA*dT*dT*d[5mC]*dT*dG*dG*dA*dT*dG*eT*e[5mC]*e[5mC]*eT*eG) [ISIS 447106],–,–,–,–,–,–,–,70,41,55,78,87,–
TGAATGCTATTATTGGATCT (antisense eT*eG*eA*eA*eT*dG*d[5mC]*dT*dA*dT*dT*dA*dT*dT*dG*eG*eA*eT*e[5mC]*eT) [ISIS 447140],–,–,–,–,–,–,–,66,29,55,77,80,–
GAGTCCACCTTTGATGAAGT (antisense eG*eA*eG*eT*e[5mC]*d[5mC]*dA*d[5mC]*d[5mC]*dT*dT*dT*dG*dA*dT*eG*eA*eA*eG*eT) [ISIS 447110],–,–,–,–,–,–,–,69,39,52,77,87,–
GCCAATCTAAAAATGGCTCA (antisense eG*e[5mC]*e[5mC]*eA*eA*dT*d[5mC]*dT*dA*dA*dA*dA*dA*dT*dG*eG*e[5mC]*eT*e[5mC]*eA) [ISIS 447135],–,–,–,–,–,–,–,67,35,52,66,76,–
GAGATCAGTTTCTGATGAAA (antisense eG*eA*eG*eA*eT*d[5mC]*dA*dG*dT*dT*dT*d[5mC]*dT*dG*dA*eT*eG*eA*eA*eA) [ISIS 447169],–,–,–,–,–,–,–,–,17,43,65,81,67
GGACTGCCTGCCATGGGTGC (antisense eG*eG*eA*e[5mC]*eT*dG*d[5mC]*d[5mC]*dT*dG*d[5mC]*d[5mC]*dA*dT*dG*eG*eG*eT*eG*e[5mC]) [ISIS 447146],–,–,–,–,–,–,–,69,44,55,78,89,–
GGCACTCTTTATATATTTGG (antisense eG*eG*e[5mC]*eA*e[5mC]*dT*d[5mC]*dT*dT*dT*dA*dT*dA*dT*dA*eT*eT*eT*eG*eG) [ISIS 447111],–,–,–,–,–,–,–,71,30,60,77,87,–
GGAGGTCCCCTGGCCACGGC (antisense eG*eG*eA*eG*eG*dT*d[5mC]*d[5mC]*d[5mC]*d[5mC]*dT*dG*dG*d[5mC]*d[5mC]*eA*e[5mC]*eG*eG*e[5mC]) [ISIS 447151],–,–,–,–,–,–,–,65,39,56,76,85,–
